Species on record: Rattus norvegicus
Assay: DrugMatrix - Regimen: Daily Repeat
Assay type: toxicity, organism-based, Sprague-Dawley
Parameters: regimen Daily Repeat, gender Male, age 6-8 weeks
Settings: in vivo, po, route oral GAVAGE, vehicle .5 % CMC; for BASOPHIL / EOSINOPHIL / ERYTHROCYTE COUNT / HEMATOCRIT / HEMOGLOBIN / LEUKOCYTE COUNT / LYMPHOCYTE / MEAN CORPUSCULAR HEMOGLOBIN / MEAN CORPUSCULAR HEMOGLOBIN CONCENTRATION / MEAN CORPUSCULAR VOLUME / MONOCYTE / NEUTROPHIL / PLATELET COUNT: tissue Blood; for ALANINE AMINOTRANSFERASE / ALBUMIN / ALKALINE PHOSPHATASE / ASPARTATE AMINOTRANSFERASE / BLOOD UREA NITROGEN / CHLORIDE / CHOLESTEROL / CREATINE PHOSPHOKINASE / CREATININE / GLUCOSE / PHOSPHORUS / POTASSIUM / SODIUM / TOTAL BILIRUBIN / TOTAL PROTEIN: tissue Plasma
[1] = 50 mg/kg, 72 h, dose level Low, time 3 day
[2] = 50 mg/kg, 120 h, dose level Low, time 5 day
[3] = 1200 mg/kg, 72 h, dose level High, time 3 day
[4] = 1200 mg/kg, 120 h, dose level High, time 5 day

CCN1CCC[C@H]1CNC(=O)c1cc(S(N)(=O)=O)ccc1OC [LEVOSULPIRIDE]
BASOPHIL [1]: 0%
EOSINOPHIL [1]: 0.33%
ERYTHROCYTE COUNT [1]: 5.59 x10E6/uL
HEMATOCRIT [1]: 33.77%
HEMOGLOBIN [1]: 13.77 G/DL
LEUKOCYTE COUNT [1]: 14.5 x10E3/uL
LYMPHOCYTE [1]: 87%
MEAN CORPUSCULAR HEMOGLOBIN [1]: 24.6 pg
MEAN CORPUSCULAR HEMOGLOBIN CONCENTRATION [1]: 40.77 G/DL
MEAN CORPUSCULAR VOLUME [1]: 60.4 fL
MONOCYTE [1]: 1.67%
NEUTROPHIL [1]: 11%
PLATELET COUNT [1]: 1162.67 x10E3/uL
ALANINE AMINOTRANSFERASE [1]: 41 u/L
ALBUMIN [1]: 3.7 G/DL
ALKALINE PHOSPHATASE [1]: 441.67 u/L
ASPARTATE AMINOTRANSFERASE [1]: 64 u/L
BLOOD UREA NITROGEN [1]: 13.33 mg/dL
CHLORIDE [1]: 106.33 MEQ/L
CHOLESTEROL [1]: 70.33 mg/dL
CREATINE PHOSPHOKINASE [1]: 137 u/L
CREATININE [1]: 0.5 mg/dL
GLUCOSE [1]: 187.67 mg/dL
PHOSPHORUS [1]: 11.53 mg/dL
POTASSIUM [1]: 6.6 MEQ/L
SODIUM [1]: 150.33 MEQ/L
TOTAL BILIRUBIN [1]: 0.57 mg/dL
TOTAL PROTEIN [1]: 6 G/DL
BASOPHIL [2]: 0%
EOSINOPHIL [2]: 0.33%
ERYTHROCYTE COUNT [2]: 6.32 x10E6/uL
HEMATOCRIT [2]: 37.23%
HEMOGLOBIN [2]: 14.57 G/DL
LEUKOCYTE COUNT [2]: 13.63 x10E3/uL
LYMPHOCYTE [2]: 80.67%
MEAN CORPUSCULAR HEMOGLOBIN [2]: 23.03 pg
MEAN CORPUSCULAR HEMOGLOBIN CONCENTRATION [2]: 39.13 G/DL
MEAN CORPUSCULAR VOLUME [2]: 58.9 fL
MONOCYTE [2]: 2.67%
NEUTROPHIL [2]: 16.33%
PLATELET COUNT [2]: 1180.67 x10E3/uL
ALANINE AMINOTRANSFERASE [2]: 42 u/L
ALBUMIN [2]: 3.7 G/DL
ALKALINE PHOSPHATASE [2]: 336 u/L
ASPARTATE AMINOTRANSFERASE [2]: 62.33 u/L
BLOOD UREA NITROGEN [2]: 13 mg/dL
CHLORIDE [2]: 106 MEQ/L
CHOLESTEROL [2]: 67.67 mg/dL
CREATINE PHOSPHOKINASE [2]: 137.33 u/L
CREATININE [2]: 0.57 mg/dL
GLUCOSE [2]: 188.67 mg/dL
PHOSPHORUS [2]: 10.97 mg/dL
POTASSIUM [2]: 6.83 MEQ/L
SODIUM [2]: 150.67 MEQ/L
TOTAL BILIRUBIN [2]: 0.4 mg/dL
TOTAL PROTEIN [2]: 5.97 G/DL
BASOPHIL [3]: 0%
EOSINOPHIL [3]: 0.5%
ERYTHROCYTE COUNT [3]: 6.49 x10E6/uL
HEMATOCRIT [3]: 38.15%
HEMOGLOBIN [3]: 15.2 G/DL
LEUKOCYTE COUNT [3]: 14.55 x10E3/uL
LYMPHOCYTE [3]: 86%
MEAN CORPUSCULAR HEMOGLOBIN [3]: 23.4 pg
MEAN CORPUSCULAR HEMOGLOBIN CONCENTRATION [3]: 39.85 G/DL
MEAN CORPUSCULAR VOLUME [3]: 58.75 fL
MONOCYTE [3]: 0.5%
NEUTROPHIL [3]: 13%
PLATELET COUNT [3]: 1325.5 x10E3/uL
ALANINE AMINOTRANSFERASE [3]: 42 u/L
ALBUMIN [3]: 4 G/DL
ALKALINE PHOSPHATASE [3]: 363 u/L
ASPARTATE AMINOTRANSFERASE [3]: 58.33 u/L
BLOOD UREA NITROGEN [3]: 16.67 mg/dL
CHLORIDE [3]: 104 MEQ/L
CHOLESTEROL [3]: 80 mg/dL
CREATINE PHOSPHOKINASE [3]: 154.33 u/L
CREATININE [3]: 0.6 mg/dL
GLUCOSE [3]: 176.67 mg/dL
PHOSPHORUS [3]: 12.6 mg/dL
POTASSIUM [3]: 7.23 MEQ/L
SODIUM [3]: 150 MEQ/L
TOTAL BILIRUBIN [3]: 0.67 mg/dL
BASOPHIL [4]: 0%
EOSINOPHIL [4]: 0.5%
ERYTHROCYTE COUNT [4]: 5.88 x10E6/uL
HEMATOCRIT [4]: 35.5%
HEMOGLOBIN [4]: 15 G/DL
LEUKOCYTE COUNT [4]: 12.3 x10E3/uL
LYMPHOCYTE [4]: 85.5%
MEAN CORPUSCULAR HEMOGLOBIN [4]: 25.5 pg
MEAN CORPUSCULAR HEMOGLOBIN CONCENTRATION [4]: 42.4 G/DL
MEAN CORPUSCULAR VOLUME [4]: 60.25 fL
MONOCYTE [4]: 4.5%
NEUTROPHIL [4]: 9.5%
PLATELET COUNT [4]: 1166 x10E3/uL
ALANINE AMINOTRANSFERASE [4]: 43 u/L
ALBUMIN [4]: 3.65 G/DL
ALKALINE PHOSPHATASE [4]: 219.5 u/L
ASPARTATE AMINOTRANSFERASE [4]: 64 u/L
BLOOD UREA NITROGEN [4]: 16 mg/dL
CHLORIDE [4]: 106.5 MEQ/L
CHOLESTEROL [4]: 65.5 mg/dL
CREATINE PHOSPHOKINASE [4]: 164 u/L
CREATININE [4]: 0.6 mg/dL
GLUCOSE [4]: 166.5 mg/dL
PHOSPHORUS [4]: 11.95 mg/dL
POTASSIUM [4]: 6.7 MEQ/L
SODIUM [4]: 151.5 MEQ/L
TOTAL BILIRUBIN [4]: 0.35 mg/dL
TOTAL PROTEIN [4]: 6 G/DL
